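Assay format: 96-well plates, 48-hour exposure. GI50 is the concentration that inhibits growth by half.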 The source made the active and inactive calls. Cut-off read from the data, not from the text of the source: active = GI50 up to about 1.1 µM and inactive = higher.
What was measured:
Experiment in all cases: NCI tumour cell line growth inhibition, 48 h
IGROV-1 = test system: IGROV-1
ACHN = test system: ACHN
SNB-19 = test system: SNB-19
SF-539 = test system: SF-539
HCT-15 = test system: HCT-15
HOP-92 = test system: HOP-92
NCI-H460 = test system: NCI-H460
CAKI-1 = test system: CAKI-1
Malme-3M = test system: Malme-3M
U-251 = test system: U-251
OVCAR-5 = test system: OVCAR-5
SK-OV-3 = test system: SK-OV-3
UO-31 = test system: UO-31
HCC 2998 = test system: HCC 2998
SNB-75 = test system: SNB-75
RXF 393 = test system: RXF 393

CCOC(=O)/C(C#N)=C(O)/C(=C\c1ccc(Br)cc1)NC(=O)c1ccccc1
GI50 (IGROV-1): > 100 µM (inactive) | GI50 (ACHN): > 100 µM (inactive) | GI50 (SNB-19): > 100 µM (inactive) | GI50 (SF-539): > 100 µM (inactive) | GI50 (HCT-15): 37.4 µM | GI50 (HOP-92): > 100 µM (inactive) | GI50 (NCI-H460): > 100 µM (inactive) | GI50 (CAKI-1): > 100 µM (inactive) | GI50 (Malme-3M): > 100 µM (inactive) | GI50 (U-251): > 100 µM (inactive) | GI50 (OVCAR-5): > 100 µM (inactive) | GI50 (SK-OV-3): > 100 µM (inactive) | GI50 (UO-31): > 100 µM (inactive) | GI50 (HCC 2998): > 100 µM (inactive) | GI50 (SNB-75): > 100 µM (inactive)

COc1ccc2occ(CCC(=O)O)c2c1
GI50 (IGROV-1): > 100 µM (inactive) | GI50 (ACHN): > 100 µM (inactive) | GI50 (SNB-19): > 100 µM (inactive) | GI50 (SF-539): > 100 µM (inactive) | GI50 (HCT-15): > 100 µM | GI50 (HOP-92): > 100 µM (inactive) | GI50 (NCI-H460): > 100 µM (inactive) | GI50 (CAKI-1): > 100 µM (inactive) | GI50 (U-251): > 100 µM (inactive) | GI50 (RXF 393): > 100 µM (inactive) | GI50 (SK-OV-3): > 100 µM (inactive) | GI50 (HCC 2998): > 100 µM (inactive) | GI50 (SNB-75): > 100 µM (inactive)

O=C1CC[C@@H](S(=O)(=O)c2ccccc2)[C@H](/C=C/c2ccccc2)O1
GI50 (IGROV-1): > 100 µM (inactive) | GI50 (ACHN): > 100 µM (inactive) | GI50 (SNB-19): > 100 µM (inactive) | GI50 (SF-539): > 100 µM (inactive) | GI50 (HCT-15): > 100 µM | GI50 (NCI-H460): > 100 µM (inactive) | GI50 (Malme-3M): > 100 µM (inactive) | GI50 (U-251): > 100 µM (inactive) | GI50 (OVCAR-5): > 100 µM (inactive) | GI50 (RXF 393): > 100 µM (inactive) | GI50 (SK-OV-3): > 100 µM (inactive) | GI50 (UO-31): > 100 µM (inactive) | GI50 (HCC 2998): > 100 µM (inactive) | GI50 (SNB-75): > 100 µM (inactive)

O=C(O)C1=NN=C(C(=O)O)NN1
GI50 (IGROV-1): > 100 µM (inactive) | GI50 (ACHN): > 100 µM (inactive) | GI50 (SNB-19): > 100 µM (inactive) | GI50 (SF-539): > 100 µM (inactive) | GI50 (HCT-15): > 100 µM | GI50 (HOP-92): > 100 µM (inactive) | GI50 (NCI-H460): 79.4 µM (inactive) | GI50 (CAKI-1): > 100 µM (inactive) | GI50 (Malme-3M): > 100 µM (inactive) | GI50 (U-251): > 100 µM (inactive) | GI50 (OVCAR-5): > 100 µM (inactive) | GI50 (RXF 393): > 100 µM (inactive) | GI50 (SK-OV-3): 37.9 µM (inactive) | GI50 (UO-31): > 100 µM (inactive) | GI50 (SNB-75): > 100 µM (inactive)

O=C(Cn1ccnc1[N+](=O)[O-])c1ccccc1
GI50 (IGROV-1): > 100 µM (inactive) | GI50 (ACHN): > 100 µM (inactive) | GI50 (SNB-19): > 100 µM (inactive) | GI50 (SF-539): > 100 µM (inactive) | GI50 (HCT-15): > 100 µM | GI50 (HOP-92): > 100 µM (inactive) | GI50 (NCI-H460): > 100 µM (inactive) | GI50 (CAKI-1): > 100 µM (inactive) | GI50 (Malme-3M): > 100 µM (inactive) | GI50 (OVCAR-5): > 100 µM (inactive) | GI50 (RXF 393): > 100 µM (inactive) | GI50 (SK-OV-3): > 100 µM (inactive) | GI50 (UO-31): > 100 µM (inactive) | GI50 (HCC 2998): > 100 µM (inactive) | GI50 (SNB-75): > 100 µM (inactive)

CC(=O)N1CC(=O)NC1=S
GI50 (IGROV-1): > 100 µM (inactive) | GI50 (ACHN): > 100 µM (inactive) | GI50 (SNB-19): > 100 µM (inactive) | GI50 (SF-539): > 100 µM (inactive) | GI50 (HCT-15): > 100 µM | GI50 (HOP-92): > 100 µM (inactive) | GI50 (CAKI-1): > 100 µM (inactive) | GI50 (Malme-3M): > 100 µM (inactive) | GI50 (U-251): > 100 µM (inactive) | GI50 (OVCAR-5): > 100 µM (inactive) | GI50 (SK-OV-3): > 100 µM (inactive) | GI50 (UO-31): > 100 µM (inactive) | GI50 (SNB-75): 69.3 µM (inactive)

Cn1cc2ccccc2c1-c1nc(F)nc(OCC(=O)[C@H]2CCC3[C@@H]4CCC5=CC(=O)CC[C@]5(C)C4[C@@H](O)C[C@@]32C)n1 (some centres not stated)
GI50 (IGROV-1): 7.48 µM (inactive) | GI50 (ACHN): 17.7 µM (inactive) | GI50 (SNB-19): 19.4 µM (inactive) | GI50 (SF-539): 17.8 µM (inactive) | GI50 (HCT-15): 7.18 µM | GI50 (HOP-92): 19.8 µM (inactive) | GI50 (NCI-H460): 21.7 µM (inactive) | GI50 (CAKI-1): 3.92 µM (inactive) | GI50 (Malme-3M): 18.9 µM (inactive) | GI50 (U-251): 19.4 µM (inactive) | GI50 (OVCAR-5): 37.8 µM (inactive) | GI50 (RXF 393): 3.92 µM (inactive) | GI50 (SK-OV-3): 19.1 µM (inactive) | GI50 (UO-31): 19.6 µM (inactive) | GI50 (HCC 2998): 25.6 µM (inactive) | GI50 (SNB-75): 19 µM (inactive)

COC(=O)c1c2cccccc-2c(Cc2c3cccccc-3c(C(=O)OC)c2O)c1O
GI50 (IGROV-1): > 100 µM (inactive) | GI50 (ACHN): > 100 µM (inactive) | GI50 (SNB-19): > 100 µM (inactive) | GI50 (SF-539): > 100 µM (inactive) | GI50 (HCT-15): > 100 µM | GI50 (HOP-92): > 100 µM (inactive) | GI50 (NCI-H460): > 100 µM (inactive) | GI50 (CAKI-1): > 100 µM (inactive) | GI50 (Malme-3M): > 100 µM (inactive) | GI50 (U-251): > 100 µM (inactive) | GI50 (OVCAR-5): > 100 µM (inactive) | GI50 (SK-OV-3): > 100 µM (inactive) | GI50 (UO-31): > 100 µM (inactive) | GI50 (HCC 2998): > 100 µM (inactive) | GI50 (SNB-75): 86.5 µM (inactive)

CCN(CC)C(=S)SCC(=O)Nc1nc2c(s1)CCCC2
GI50 (IGROV-1): > 100 µM (inactive) | GI50 (ACHN): > 100 µM (inactive) | GI50 (SNB-19): > 100 µM (inactive) | GI50 (SF-539): > 100 µM (inactive) | GI50 (HCT-15): 24.6 µM | GI50 (HOP-92): 68.2 µM (inactive) | GI50 (NCI-H460): 68.9 µM (inactive) | GI50 (Malme-3M): > 100 µM (inactive) | GI50 (U-251): 70.1 µM (inactive) | GI50 (OVCAR-5): > 100 µM (inactive) | GI50 (SK-OV-3): > 100 µM (inactive) | GI50 (UO-31): 36.7 µM (inactive) | GI50 (HCC 2998): > 100 µM (inactive) | GI50 (SNB-75): 72.6 µM (inactive)

NC(=O)c1ccccc1NC(=O)C(=O)C(C(=O)c1ccc(Cl)c(Cl)c1)C1OC(=O)c2ccccc21 (configuration not stated)
GI50 (IGROV-1): 60.1 µM (inactive) | GI50 (ACHN): 59.3 µM (inactive) | GI50 (SNB-19): 45 µM (inactive) | GI50 (HCT-15): 46.5 µM | GI50 (HOP-92): 42.8 µM (inactive) | GI50 (CAKI-1): 52.6 µM (inactive) | GI50 (Malme-3M): 14.5 µM (inactive) | GI50 (U-251): 30.8 µM (inactive) | GI50 (OVCAR-5): > 100 µM (inactive) | GI50 (RXF 393): 17 µM (inactive) | GI50 (HCC 2998): 49.8 µM (inactive) | GI50 (SNB-75): 23.4 µM (inactive)

From ChEMBL document CHEMBL1201862, “PubChem BioAssay data set” (2004)
